Reference: PMC4109680, “Identification and Preclinical Pharmacology of the γ-Secretase Modulator BMS-869780” (International Journal of Alzheimer's Disease, 2014)

Experiment: Pharmacokinetics in male beagle dogs
Type: in vivo
Conditions: plasma, Dog
Procedure: Male Sprague-Dawley (SD) rats (300–350 g) were fasted overnight, and three per group received BMS-869780 either as an intravenous (IV) infusion in PEG400 : ethanol (90 : 10 w/w) at 1 mg/kg over 5 min via the jugular vein or as nanosuspension (d50 ca. 300 nm) by oral gavage at 5 mg/kg in Povidone K-30 : sodium lauryl sulfate : water (2.5 : 0.12 : 97.38 w/w/w/w). For the IV infusion, serial blood samples were obtained before dose and at 0.17, 0.25, 0.5, 0.75, 1, 2, 4, 6, 8, and 24 hours after dose. For the PO nanosuspension, serial blood samples were obtained before dose and at 0.25, 0.5, 0.75, 1, 2, 4, 6, 8, and 24 h after dose. Blood samples, ~0.3 mL, for all studies were collected from the jugular vein into K3EDTA-containing tubes and then centrifuged at 4°C (1500–2000 ×g) to obtain plasma, which was stored at −20°C until analysis by LC/MS/MS. In male beagle dogs, the PK of BMS-869780 was evaluated in a cross-over study design with a one-week washout between treatments. Dogs were fasted overnight, and three animals (9.5 to 10.7 kg) received BMS-869780 by IV infusion at 1 mg/kg over 5 minutes in PEG400 : ethanol (90 : 10 w/w) or as nanosuspension (d50 ca. 300 nm) by oral gavage at 5 mg/kg in Povidone K-30 : sodium lauryl sulfate : water (2.5 : 0.12 : 97.38 w/w/w/w). Serial blood samples (~0.3 mL) were collected from a saphenous vein into K3EDTA-containing tubes before dose and at 0.083, 0.17, 0.25, 0.5, 0.75, 1, 2, 4, 6, 8, and 24 hours after IV dose, and 0.25, 0.5, 0.75, 1, 2, 4, 6, 8, and 24 hours after oral dose, followed by centrifugation at 4°C (1500 to 2000 ×g) to obtain plasma. Samples were stored at −20°C until analysis of BMS-869780 levels by LC-MS/MS. In male cynomolgus monkeys, the PK of BMS-869780 was evaluated in a cross-over study design with a 1-week washout between treatments. Following an overnight fast, three animals (4.5 to 8 kg) received BMS-869780 by IV infusion via a femoral vein at 1 mg/kg over 10 minutes in PEG400 : ethanol (90 : 10), or by oral gavage at 5 mg/kg in Povidone K-30 : sodium lauryl sulfate : water (2.5 : 0.12 : 97.38). Serial blood samples, ~0.3 mL, were collected from a femoral artery into K3EDTA-containing tubes before dose and at 0.083, 0.17, 0.25, 0.5, 0.75, 1, 2, 4, 6, 8, and 24 hours after IV dose, and 0.25, 0.5, 0.75, 1, 2, 4, 6, 8, and 24 hours after oral dose, followed by centrifugation at 4°C (1500 to 2000 ×g) to obtain plasma. Samples were stored at −20°C until analysis of BMS-869780 levels by LC-MS/MS. The PK parameters of BMS-869780 were obtained by noncompartmental analysis of plasma concentration versus time data (WinNonlin software, Version 5.0; Pharsight Corporation, Mountain View, CA). The peak concentration (C max) and time for C max (T max) were recorded directly from experimental observations. The area under the curve from time zero to the last sampling time (AUC^0-T) and the area under the curve from time zero to infinity (AUC^INF) were calculated using a combination of linear and log trapezoidal summations. The total plasma clearance (CLTp), steady-state volume of distribution (Vss), apparent elimination half-life (T 1/2), and mean residence time (MRT) were estimated after IV administration. The absolute oral bioavailability (F) was estimated as the ratio of dose-normalized AUC values following oral and IV doses.
Figure 9 Pharmacokinetics (PK) of BMS-869780 across species for prediction of human PK. Rats, dogs, and cynomolgus monkeys were dosed with BMS-869780 intravenously (IV ▲) at 1 mg/kg or oral nanosuspension (PO ●) at 5 mg/kg. Plasma concentrations of BMS-869780 were determined for up to 24 hours after the dose. (a) Rat. (b) Dog. (c) Cynomolgus monkey.

## COc1cc(Nc2nc3n(n2)CCCC[C@H]3c2ccc(F)cc2)ccc1-n1cnc(Cl)c1 [BMS-869780]
IV 1 mg/kg
  AUC(0-t): 6.64 ± 2.26 µM·h
  MRT: 6.6 ± 2 h
  clearance: 5.7 ± 1.7 mL/min/kg
  half-life: 5.2 ± 1.4 h
IV 1 mg/kg, read-out: Vss
  Vd: 2.2 ± 0.8 L/kg
PO suspension 5 mg/kg
  AUC(0-t): 4.55 ± 2.16 µM·h
  Cmax: 487 ± 155 nM
  Tmax: 1.7 ± 0.6 h
  bioavailability: 13%
